Measured values reported in ChEMBL document CHEMBL5674860, “Optimized Dual-Glo Assay to identify co-culture-induced drug vulnerabilities in 3D CRC models” (2024).

Legend:
Type in all cases: functional, Homo sapiens
Parameters in all cases: dose or concentration left out as unconfirmed
Colon cancer organoid [1] = test: Optimized Dual-Glo assay to identify co-culture induced drug vulnerabilities using donated chemical probes and chemogenomics kinase set in O14 CRC organoid and F14 CAF mono and co-culture. […] Cell viability is reported both mono and co-culture models.
Colon cancer organoid [2] = test: Optimized Dual-Glo assay to identify co-culture induced drug vulnerabilities using donated chemical probes and chemogenomics kinase set in O20 CRC organoid and F20 CAF mono and co-culture. […] Cell viability is reported both mono and co-culture models.
Colon cancer organoid [3] = test: Optimized Dual-Glo assay to identify co-culture induced drug vulnerabilities using donated chemical probes and chemogenomics kinase set in O06 CRC organoid and F06 CAF mono and co-culture. […] Cell viability is reported both mono and co-culture models.
[4] = Culture type Co-Culture, Transduced with Lucferase2-P2A-EGFP lentivirus
[5] = Culture type Co-Culture, Transduced with Renilla-dsRed lentivirus
[6] = Culture type Mono-Culture, Transduced with Lucferase2-P2A-EGFP lentivirus
[7] = Culture type Mono-Culture, Transduced with Renilla-dsRed lentivirus

Structure (SMILES)	Cell Viability (Colon cancer organoid [1]; [4]) [%]	Cell Viability (Colon cancer organoid [1]; [5]) [%]	Cell Viability (Colon cancer organoid [1]; [6]) [%]	Cell Viability (Colon cancer organoid [1]; [7]) [%]	Cell Viability (Colon cancer organoid [2]; [4]) [%]	Cell Viability (Colon cancer organoid [2]; [5]) [%]	Cell Viability (Colon cancer organoid [2]; [6]) [%]	Cell Viability (Colon cancer organoid [2]; [7]) [%]	Cell Viability (Colon cancer organoid [3]; [4]) [%]	Cell Viability (Colon cancer organoid [3]; [5]) [%]	Cell Viability (Colon cancer organoid [3]; [6]) [%]	Cell Viability (Colon cancer organoid [3]; [7]) [%]
CCc1cccc(CC)c1NC(=O)c1nn(C)c2c1CCc1cnc(Nc3ccc(C(=O)NC4CCN(C)CC4)cc3OC(F)(F)F)nc1-2	20.0347	229.301	20.3776	93.7404	94.4005	107.437	25.0865	90.076	8.756	150.393	5.577	91.0019
C[C@H](c1ccc(F)cc1)N(Cc1cccc(C(=O)O)c1)C(=O)c1cnc2ccccc2c1 [PF-05105679]	81.4426	118.111	74.3119	99.7573	143.937	111.508	109.64	98.1235	133.625	152.049	106.722	91.4083
CCCCNNC(=O)c1ccc(Br)cc1	82.2147	109.67	123.977	94.4376	131.228	114.511	127.902	88.6471	113.204	110.004	101.234	117.719
CNCc1ccccc1-c1csc([C@@H](C)Nc2nc(C)nc3cc(OC)c(OC)cc23)c1 [BAY-293]	46.6211	132.811	47.2835	107.217	78.2703	145.24	64.4683	82.7466	76.9111	225.989	4.78	87.8539
CCn1cc(-c2ccnc3[nH]c(-c4cccc(CN(C)C)c4)cc23)c(-c2ccc(NC(=O)N(C)C)cc2)n1 [GSK-1070916]	29.7048	205.838	28.675	102.681	9.493	207.056	12.2557	100.034	8.589	116.692	3.637	93.7927
CCn1cc(-c2cccc(C(F)(F)F)c2)c2sc(C(=N)NC3CCS(=O)(=O)CC3)cc2c1=O	120.643	201.969	99.2111	135.353	60.6992	124.144	95.8372	109.255	95.4713	165.165	69.4061	200.249
COc1cccc(CNC(=O)c2nc3scc(CN(C)Cc4ccccc4)c3c(=O)[nH]2)c1 [T-26f]	86.5179	95.8142	82.3734	95.7877	156.545	109.586	116.769	103.534	114.676	151.389	102.721	101.465
O=C(NCc1ncc(C(F)(F)F)cc1Cl)c1ccc2c(c1)C1(CCS(=O)(=O)CC1)[C@@H](C1CC1)N2S(=O)(=O)c1ccc(F)cc1 [BAY-786]	75.9207	99.8085	94.4221	104.267	102.274	106.984	104.026	100.592	112.409	138.316	97.377	88.5192
CCOc1cc(N2CCC(O)CC2)ccc1Nc1ncc2c(n1)N(C1CCCC1)CCC(=O)N2C	86.8191	245.351	52.078	149.574	51.9112	144.517	36.2832	127.288	80.3618	151.464	49.5621	184.932
Cl.O=C([C@@H](Cc1cccc(C(F)(F)F)c1)NS(=O)(=O)c1cc(F)c2c(c1)CCNC2)N1CCCC1	99.1964	106.618	90.5758	109.686	152.168	150.248	145.099	80.4285	84.043	115.078	78.4722	93.27
C=CC(=O)Nc1ccc2[nH]c(=O)n(C3CCN(C(=O)c4ccc(-c5nc6cc[nH]c(=O)c6cc5-c5ccccc5)cc4)CC3)c2c1	111.176	112.94	102.423	83.7994	101.159	80.5582	103.07	78.5683	100.634	129.997	117.336	96.7859
Cc1noc(C)c1-c1cnc2c(-c3ccc(C(=O)O)cc3)cn([C@@H](C)c3ccccn3)c2c1 [PLX-51107]	32.5617	348.195	30.1969	207.472	17.6563	177.825	24.073	120.563	26.8486	312.702	23.3668	265.011
CN(C)[C@H]1CN(C2CCc3cccc(F)c32)C[C@@H]1c1ccc(N2CCN(S(C)(=O)=O)CC2)cc1 (stereo partly specified)	85.2853	124.227	108.249	110.303	31.8041	145.189	62.1102	96.7919	82.1891	127.07	99.7479	137.803
O=C(/C=C/N1C[C@H]2C[C@@H]1CN2c1ccccn1)c1ccccc1O	76.8483	107.425	87.3467	104.591	98.7098	109.392	120.989	80.1119	122.112	121.159	115.481	98.9347
CC(C)(O)[C@H](F)CN1Cc2cc(NC(=O)c3cnn4cccnc34)c(N3CCOCC3)cc2C1=O	134.835	74.5238	106.331	78.3332	123.767	88.3121	99.4921	83.0265	120.796	89.8431	75.3772	93.3836
Cc1ccc(NC(=O)Nc2cc(C(F)(F)F)ccc2F)cc1Nc1ccc2c(c1)NC(=O)/C2=C\c1ccc[nH]1	100.84	80.7866	148.906	94.1932	98.8429	67.3177	149.041	99.6693	112.777	121.077	144.763	85.6075
CC(=O)Nc1cccc(-n2c(=O)n(C3CC3)c(=O)c3c(Nc4ccc(I)cc4F)n(C)c(=O)c(C)c32)c1 [TRAMETINIB]	1.363	9.093	1.0764	6.441	2.051	46.1337	3.859	28.7914	4.434	57.2708	3.321	25.6485
Cn1cc(CNCC2CCN(c3ncc(C(=O)NO)cn3)CC2)c2ccccc21 [QUISINOSTAT]	0.9193	88.4975	0.7655	72.0368	1.342	37.1921	2.078	3.907	1.095	190.694	6.147	20.2291
